Measured values taken from the supplement of paper PMC4649846.

Experiments:
[1] = system: MDA-MB-231; experiment: drug sensitivity score (DSS); higher = more sensitive; extreme values may be limits of the assay; conditions: incubation time: 72 h
Procedure: (§1)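 MDA-MB-231 breast cancer cells were transfected with siBRCA1 or non-targeting siControl, then seeded 24 h later at 4000 cells/well in 384-well plates holding 198 drugs at 5 concentrations. Viability was read by CellTiter-Blue after 72 h at 37 °C. Dose-response curves were fitted in Dotmatics to give IC50 and a drug sensitivity score (DSS: area under the curve relative to the area between the 10% threshold and 100% inhibition, normalised by the log of the top response). The dose range is not stated. IC50 values of 8333.3 or 4166.7 nM mark no response (top dose), and 0.8333 nM is the lower limit.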

[2] = system: MDA-MB-231; conditions: incubation time: 72 h
Procedure: as §1

[3] = siRNA: siControl (non-targeting)

SMILES	drug sensitivity score ([1]; siRNA: siBRCA1)	drug sensitivity score [1, 3]	IC50 of cell viability ([2]; siRNA: siBRCA1) [µM]	IC50 of cell viability [2, 3] [µM]
CCCCCOC(=O)Nc1nc(=O)n([C@@H]2O[C@H](C)[C@@H](O)[C@H]2O)cc1F [Capecitabine]	0	0	> 4.17	> 4.17
Cc1nc(Nc2ncc(C(=O)Nc3c(C)cccc3Cl)s2)cc(N2CCN(CCO)CC2)n1 [Dasatinib]	27	27	0.011	0.0113
CN(C)C/C=C/C(=O)Nc1cc2c(Nc3ccc(F)c(Cl)c3)ncnc2cc1O[C@H]1CCOC1 [Afatinib]	4.43	8.65	3.35	1.68
CO[C@@H](C(=O)N1Cc2[nH]nc(NC(=O)c3ccc(N4CCN(C)CC4)cc3)c2C1)c1ccccc1 [Danusertib]	6.5	10.1	1.91	1.16
C[C@]1(O)C[C@@H](c2nc(-c3ccc4ccc(-c5ccccc5)nc4c3)c3c(N)nccn32)C1 [OSI-906]	0	0	> 4.17	> 4.17
C[C@@H](Oc1cc(-c2cnn(C3CCNCC3)c2)cnc1N)c1c(Cl)ccc(F)c1Cl [Crizotinib]	0.595	4.02	> 4.17	4.07
Nc1nc(Cl)nc2c1ncn2[C@H]1C[C@H](O)[C@@H](CO)O1 [Cladribine]	5.2	9.09	2.88	0.0918
C/C(=C\c1csc(C)n1)[C@@H]1C[C@@H]2O[C@]2(C)CCC[C@H](C)[C@H](O)[C@@H](C)C(=O)C(C)(C)[C@@H](O)CC(=O)N1 [Ixabepilone]	14.8	16.2	0.249	0.251
NC(=O)Nc1cc(-c2cccc(F)c2)sc1C(=O)N[C@H]1CCCNC1 [AZD 7762]	17.4	13.7	0.242	0.582
COc1ccc(-c2cc3c(C)nc(N)nc3n([C@H]3CC[C@H](OCCO)CC3)c2=O)cn1	18.9	18.6	0.125	0.129
Oc1ncnc2[nH]ncc12 [Allopurinol]	0	0	> 4.17	> 4.17
CCN(CC)CCNC(=O)c1c(C)[nH]c(/C=C2\C(=O)Nc3ccc(F)cc32)c1C [Sunitinib]	5.44	4.28	2.77	3.52
C=CCNC1=C2C[C@@H](C)C[C@H](OC)[C@H](O)[C@@H](C)/C=C(\C)[C@H](OC(N)=O)[C@@H](OC)/C=C\C=C(/C)C(=O)NC(=CC1=O)C2=O [Tanespimycin]	15.1	17.3	0.377	0.233
CNC(=O)c1cc(Oc2ccc(NC(=O)Nc3ccc(Cl)c(C(F)(F)F)c3)cc2)ccn1 [Sorafenib]	5.25	4.57	2.95	3.5
C/C(=C\c1csc(C)n1)[C@@H]1C[C@@H]2O[C@]2(C)CCC[C@H](C)[C@H](O)[C@@H](C)C(=O)C(C)(C)[C@@H](O)CC(=O)O1 [Epothilone B (Patupilone)]	23.4	23.6	0.0294	0.0291
C[C@@]1(C(=O)Nc2ccc(F)nc2)CCCN1c1nc(Nc2cc(C3CC3)n[nH]2)c2cccn2n1	3.5	7.43	> 4.17	1.19
C=CC[C@@H]1/C=C(\C)C[C@H](C)C[C@H](OC)[C@H]2O[C@@](O)(C(=O)C(=O)N3CCCC[C@H]3C(=O)O[C@H](/C(C)=C/[C@@H]3CC[C@@H](O)[C@H](OC)C3)[C@H](C)[C@@H](O)CC1=O)[C@H](C)C[C@@H]2OC [Tacrolimus]	0	0	> 4.17	> 4.17
COc1cccc2c1C(=O)c1c(O)c3c(c(O)c1C2=O)C[C@@](O)(C(=O)CO)C[C@@H]3O[C@H]1C[C@H](N)[C@H](O)[C@H](C)O1 [Doxorubicin]	17.9	19.6	0.205	0.148
O=c1[nH]cc(F)c(=O)[nH]1 [Fluorouracil]	1.13	0.956	> 4.17	> 4.17
CCCCCCCCc1ccc(CCC(N)(CO)CO)cc1 [Fingolimod]	5.09	7.79	3	1.71

SMILES	drug sensitivity score ([1]; siRNA: siBRCA1)	drug sensitivity score [1, 3]	IC50 of cell viability ([2]; siRNA: siBRCA1) [µM]	IC50 of cell viability [2, 3] [µM]
Oc1nc(-c2ccc(C(F)(F)F)cc2)nc2c1CSCC2 [XAV-939]	1.98	4	2.82	0.23
COc1cc2ncnc(Nc3ccc(F)c(Cl)c3)c2cc1OCCCN1CCOCC1 [Gefitinib]	0	0	> 4.17	> 4.17
CC[C@@H]1C(=O)OC[C@@H]1Cc1cncn1C [Pilocarpine]	0	0	> 4.17	> 4.17
C[C@H]1C[C@@H]2[C@H]([C@@H](O)C[C@@]3(C)[C@H]2CC[C@]3(O)C(=O)CO)[C@@]2(C)C=CC(=O)C=C12 [Methylprednisolone]	0	0	> 4.17	> 4.17
COc1c2occc2cc2ccc(=O)oc12 [Methoxsalen]	0	0	> 4.17	> 4.17
C=C(c1ccc(C(=O)O)cc1)c1cc2c(cc1C)C(C)(C)CCC2(C)C [Bexarotene]	0	0	> 4.17	> 4.17
COCC1(CO)C(=O)C2CCN1CC2 (stereo not given) [Prima-1 Met]	0	0	> 4.17	> 4.17
COc1c(C)cnc(Cn2cnc3c(Cl)nc(N)nc32)c1C [BIIB021]	8.95	9.35	0.869	1.29
Cc1cc(Nc2cc(CN3CCOCC3)c3nc(C)c(Cc4ccc(Cl)cc4F)n3n2)n[nH]1	6.15	3.18	1.38	> 4.17
CS(=O)(=O)OCCCCOS(C)(=O)=O [Busulfan]	0	0	> 4.17	> 4.17
O=S(=O)(c1cccc2cnccc12)N1CCCNCC1 [Fasudil]	0	0	> 4.17	> 4.17
CN(N=O)C(=O)N[C@@H](C=O)[C@@H](O)[C@H](O)[C@H](O)CO [Streptozocin]	0	0	> 4.17	> 4.17
O=C(CCCCCCC(=O)Nc1ccccc1)NO [Vorinostat]	6.81	9.94	2.04	1.13
C[C@@H]1C[C@H]2[C@@H]3CCC4=CC(=O)C=C[C@]4(C)[C@@]3(F)[C@@H](O)C[C@]2(C)[C@@]1(O)C(=O)CO [Dexamethasone]	0	0	> 4.17	> 4.17
CC[C@]1(O)C[C@H]2CN(CCc3c([nH]c4ccccc34)[C@@](C(=O)OC)(c3cc4c(cc3OC)N(C=O)[C@H]3[C@@](O)(C(=O)OC)[C@H](OC(C)=O)[C@]5(CC)C=CCN6CC[C@]43[C@@H]65)C2)C1 [Vincristine]	31.3	32.2	0.00532	0.00355
C#Cc1cccc(Nc2ncnc3cc(OCCOC)c(OCCOC)cc23)c1 [Erlotinib]	0	0	> 4.17	> 4.17
O=C(c1ccc(OCCN2CCCCC2)cc1)c1c(-c2ccc(O)cc2)sc2cc(O)ccc12 [Raloxifene]	0	0	> 4.17	> 4.17
CCNC(=O)c1noc(-c2cc(C(C)C)c(O)cc2O)c1-c1ccc(CN2CCOCC2)cc1 [NVP-AUY922]	19.6	23	0.0468	0.0266
Nc1nc(Cl)nc2c1ncn2[C@@H]1O[C@H](CO)[C@@H](O)[C@@H]1F [Clofarabine]	8.22	12.5	0.0821	0.0281
CN(C)/N=N/c1[nH]cnc1C(N)=O [Dacarbazine]	2.68	7.63	1.33	0.0964
